Measurements as given in ChEMBL document CHEMBL1201862, “PubChem BioAssay data set” (2004).
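1) Cells in 96-well plates. 2) Compound, 48 h, 5 concentrations. 3) Linear interpolation between surrounding doses. 4) Unreached endpoint = highest concentration. GI50 marks 50% less growth.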 Active and inactive are the calls of the source. No stated cut-off is given here; in the data, active = GI50 up to about 1.1 µM and inactive = higher.

What was measured:
Experiment in all cases: inhibition of tumour cell growth, NCI panel, 48 h
[1] = system: TK-10
[2] = system: IGROV-1
[3] = system: UACC-257
[4] = system: HCC 2998
[5] = system: NCI-H23
[6] = system: LOX IMVI
[7] = system: SF-295
[8] = system: OVCAR-3
[9] = system: HCT-15
[10] = system: SK-MEL-5
[11] = system: Malme-3M
[12] = system: SK-MEL-28
[13] = system: NCI-H522
[14] = system: EKVX
[15] = system: 786-0
[16] = system: NCI-H226
[17] = system: SR
[18] = system: U-251
[19] = system: A549
[20] = system: UACC-62

| Compound | GI50 [1] | GI50 [2] | GI50 [3] | GI50 [4] | GI50 [5] | GI50 [6] | GI50 [7] | GI50 [8] | GI50 [9] | GI50 [10] | GI50 [11] | GI50 [12] | GI50 [13] | GI50 [14] | GI50 [15] | GI50 [16] | GI50 [17] | GI50 [18] | GI50 [19] | GI50 [20] |
| --- | --- | --- | --- | --- | --- | --- | --- | --- | --- | --- | --- | --- | --- | --- | --- | --- | --- | --- | --- | --- |
| CCOC(=O)C(NC(C)=O)(Nc1ccc(S(N)(=O)=O)cc1)C(F)(F)F (centres undefined) | > 100 µM (inactive) | > 100 µM (inactive) | > 100 µM (inactive) | > 100 µM (inactive) | > 100 µM (inactive) | > 100 µM (inactive) | > 100 µM (inactive) | > 100 µM (inactive) | > 100 µM | > 100 µM (inactive) | > 100 µM (inactive) | > 100 µM (inactive) | > 100 µM (inactive) | > 100 µM (inactive) | > 100 µM (inactive) | > 100 µM (inactive) | > 100 µM (inactive) | > 100 µM (inactive) | > 100 µM (inactive) | – |
| CN(C)Cc1ccc(C(C)(C)C)cc1-c1cc(C(C)(C)C)ccc1CN(C)C | > 100 µM (inactive) | > 100 µM (inactive) | 21.6 µM (inactive) | 16 µM (inactive) | 77.4 µM (inactive) | 83.6 µM (inactive) | 33.5 µM (inactive) | 21.8 µM (inactive) | 72.3 µM | 32.4 µM (inactive) | 31.3 µM (inactive) | 33.3 µM (inactive) | 50.5 µM (inactive) | 39.2 µM (inactive) | 70.5 µM (inactive) | > 100 µM (inactive) | 39 µM (inactive) | 42.7 µM (inactive) | 93.5 µM (inactive) | > 100 µM (inactive) |
| N=C(N)N/N=C\c1c(-c2cccc([N+](=O)[O-])c2)nc2sc(Cl)cn12 | 2.38 µM (inactive) | 1.8 µM (inactive) | 2.29 µM (inactive) | 2.31 µM (inactive) | 2.75 µM (inactive) | 3.7 µM (inactive) | 2.31 µM (inactive) | 3.24 µM (inactive) | 4.07 µM | 24.4 µM (inactive) | 2.42 µM (inactive) | 2.21 µM (inactive) | 1.98 µM (inactive) | 3.15 µM (inactive) | 3.27 µM (inactive) | 53.2 µM (inactive) | 0.61 µM (active) | 3.17 µM (inactive) | 2.84 µM (inactive) | 27.5 µM (inactive) |
| CCc1nc2c(c(N(C)C)c1C(=O)OC)CCc1ccccc1-2 | 35.5 µM (inactive) | 40.4 µM (inactive) | 26.1 µM (inactive) | 24.6 µM (inactive) | 34.4 µM (inactive) | 27.2 µM (inactive) | 17.6 µM (inactive) | 13.4 µM (inactive) | 32.5 µM | 17 µM (inactive) | 30.5 µM (inactive) | 38.5 µM (inactive) | 17.9 µM (inactive) | 25.9 µM (inactive) | 39.5 µM (inactive) | 21.5 µM (inactive) | 11.4 µM (inactive) | 30.9 µM (inactive) | 31 µM (inactive) | 16.9 µM (inactive) |
| O=C(CCOS(=O)(=O)CF)N1CCN(C(=O)CCOS(=O)(=O)CF)CC1 | > 100 µM (inactive) | > 69.5 µM (inactive) | > 100 µM (inactive) | > 100 µM (inactive) | 29.6 µM (inactive) | 16.9 µM (inactive) | 32.6 µM (inactive) | > 100 µM (inactive) | > 100 µM | 51.6 µM (inactive) | > 57.3 µM (inactive) | > 100 µM (inactive) | 31.6 µM (inactive) | > 100 µM (inactive) | 28.4 µM (inactive) | > 88.7 µM (inactive) | 9.08 µM (inactive) | 29.8 µM (inactive) | 59 µM (inactive) | 16.4 µM (inactive) |
| N=C(N)NS(=O)(=O)c1ccc(NCc2c3ccccc3nc3ccccc23)cc1 | 64.1 µM (inactive) | 23.4 µM (inactive) | 14.5 µM (inactive) | 7.38 µM (inactive) | 1.09 µM (active) | 0.946 µM (active) | 2.45 µM (inactive) | 11.6 µM (inactive) | 40.3 µM | 2.62 µM (inactive) | 4.75 µM (inactive) | 47.3 µM (inactive) | 2.28 µM (inactive) | 10.4 µM (inactive) | 1.07 µM (active) | 0.421 µM (active) | 0.0363 µM (active) | 0.354 µM (active) | 0.338 µM (active) | 1.1 µM (active) |
| C/C(=N\NC(N)=S)C(CN(CC(C)C)CC(C)C)C(=O)Nc1ccc(C)cc1C (centres undefined) | > 100 µM (inactive) | > 100 µM (inactive) | > 100 µM (inactive) | > 100 µM (inactive) | > 100 µM (inactive) | > 100 µM (inactive) | > 100 µM (inactive) | > 100 µM (inactive) | > 100 µM | > 100 µM (inactive) | > 100 µM (inactive) | > 100 µM (inactive) | > 100 µM (inactive) | 54.6 µM (inactive) | > 100 µM (inactive) | > 100 µM (inactive) | > 100 µM (inactive) | > 100 µM (inactive) | > 100 µM (inactive) | > 100 µM (inactive) |
